Consider 7 compounds from US20240067632A1, “WEE1 Degrading Compounds and Uses Thereof” (Bristol-Myers Squibb Company, priority 2022, published 2024).

pEC50: −log10 of the molar value.

One experiment concerns MKN45 cells. In words: MKN45 cell proliferation assay (Cell-Titer-Glo, 120 h). The format is cell-based. The settings on record: for pEC50: Homo sapiens, MKN-45, 120 h, Cell-Titer-Glo, read-out: MKN45 Cell Prolif. 120 hr (EC50); for MKN45 Cell Prolif. 120 hr (Ymin-Obs): minimal percent of DMSO control observed in the concentrations tested. The method in brief: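 Growth inhibition was read as blank-corrected Cell-Titer-Glo luminescence expressed as percent DMSO control after 120 h at 37 C, 400 cells/well. Compounds tested in triplicate as 10-point half-log series from 1 or 10 uM, 0.1% DMSO; four-parameter fit gave EC50, and lowest observed percent control was reported as Ymin-obs.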

For the next experiment, the target named is T1, WEE1 (Homo sapiens, UniProt P30291+Q96SW2).
T1 construct: C-terminal ePL-tagged (DiscoverX, Fremont, CA) full-length WEE1 expression construct; expressed in transfected cells; host or cells: LentiX-HEK293T (Invitrogen), lentiviral transduction; co-expressing GSPT1-GN (G576N, lacking the first 158 amino acids)
In words: WEE1-ePL degradation assay (LentiX-WEE1-ePL-GSPT1-ND cells, InCELL Hunter luminescence, 4 h). The format is cell-based. Conditions: 293T-LentiX WEE1-ePL cells; for 293T-LentiX WEE1-ePL Degradation 4 hr (Ymin): lower limit of the fit (Ymin=0 luciferase inhibitor, Ymax DMSO control); for DC50: read-out: 293T-LentiX WEE1-ePL Degradation 4 hr (EC50). An outline of the steps:
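LentiX-HEK293T cells stably expressing C-terminally ePL-tagged full-length WEE1 were treated with compounds in a 10-point, 3-fold dilution series starting at 1 uM or 10 uM for 4 h at 37 °C. Remaining WEE1-ePL was detected by InCELL Hunter luminescence, and EC50, Ymin and Ymax came from a four-parameter logistic fit against DMSO control.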

On to `CC(C)(O)c1cc(CN2CC[C@H](Oc3ccc4c(c3)CN([C@H]3CCC(=O)NC3=O)C4=O)C2)cc2ccc(C3CCOCC3)nc12` [(3S)-3-(5-{[(3S)-1-{[8-(2-hydroxypropan-2-yl)-2-(oxan-4-yl)quinolin-6-yl]methyl}pyrrolidin-3-yl]oxy}-1-oxo-2,3-dihydro-1H-isoindol-2-yl)piperidine-2,6-dione], for which, in the experiment with MKN45 cells, the pEC50 is 6.78 and the “MKN45 Cell Prolif. 120 hr (Ymin-Obs)” value was 75.97. In addition, on WEE1, the “293T-LentiX WEE1-ePL Degradation 4 hr (Ymin)” value was 53.75 and the DC50 is 6.72 nM.
On the same counts, the results for `O=C1CC[C@H](N2Cc3cc(O[C@H]4CCN(Cc5cc(N6CCC6)c6nc(C7CCOCC7)ccc6c5)C4)ccc3C2=O)C(=O)N1` [(3S)-3-(5-{[(3S)-1-{[8-(azetidin-1-yl)-2-(oxan-4-yl)quinolin-6-yl]methyl}pyrrolidin-3-yl]oxy}-1-oxo-2,3-dihydro-1H-isoindol-2-yl)piperidine-2,6-dione] are 7.97, 3.155, 33.36 and 26 nM.
On the same counts, the results for `O=C1CC[C@H](N2Cc3cc(O[C@H]4CCN(Cc5cc(Cl)c6nc(N7CCOCC7)ncc6c5)C4)ccc3C2=O)C(=O)N1` [(3S)-3-(5-{[(3S)-1-{[8-chloro-2-(morpholin-4-yl)quinazolin-6-yl]methyl}pyrrolidin-3-yl]oxy}-1-oxo-2,3-dihydro-1H-isoindol-2-yl)piperidine-2,6-dione] are 7.96, 12.54, 38.34 and 2.88 nM.
For the compound `O=C1CC[C@H](N2Cc3cc(O[C@H]4CCN(Cc5cc(Cl)c6nc(C7CCOCC7)ccc6c5)C4)ccc3C2=O)C(=O)N1` [(3S)-3-(5-{[(3S)-1-{[8-chloro-2-(oxan-4-yl)quinolin-6-yl]methyl}pyrrolidin-3-yl]oxy}-1-oxo-2,3-dihydro-1H-isoindol-2-yl)piperidine-2,6-dione], in the experiment on MKN45 cells, the pEC50 was 8.35 and the “MKN45 Cell Prolif. 120 hr (Ymin-Obs)” value is listed as 10.22. Also, on WEE1, the “293T-LentiX WEE1-ePL Degradation 4 hr (Ymin)” value was determined as 29.99 and the DC50 stood at 1.1 nM.
`O=C1CC[C@H](N2Cc3cc(O[C@H]4CCN(Cc5cc(C6CC6)c6nc(N7CCOCC7)ncc6c5)C4)ccc3C2=O)C(=O)N1` [(3S)-3-(5-{[(3S)-1-{[8-cyclopropyl-2-(morpholin-4-yl)quinazolin-6-yl]methyl}pyrrolidin-3-yl]oxy}-1-oxo-2,3-dihydro-1H-isoindol-2-yl)piperidine-2,6-dione]: in the experiment on MKN45 cells, the pEC50 is 8.64 and the “MKN45 Cell Prolif. 120 hr (Ymin-Obs)” value stood at 2.136. Further, on WEE1, the “293T-LentiX WEE1-ePL Degradation 4 hr (Ymin)” value was determined as 42.1 and the DC50 turned out to be 2.5 nM.
For the compound `O=C1CC[C@H](N2Cc3cc(O[C@H]4CCN(Cc5cc(C6CC6)c6nc(C7CCOCC7)ccc6c5)C4)ccc3C2=O)C(=O)N1` [(3S)-3-(5-{[(3S)-1-{[8-cyclopropyl-2-(oxan-4-yl)quinolin-6-yl]methyl}pyrrolidin-3-yl]oxy}-1-oxo-2,3-dihydro-1H-isoindol-2-yl)piperidine-2,6-dione], in the experiment on MKN45 cells, the pEC50 was 9.80 and the “MKN45 Cell Prolif. 120 hr (Ymin-Obs)” value was 3.047. Moreover, on WEE1, the “293T-LentiX WEE1-ePL Degradation 4 hr (Ymin)” value stood at 54.54 and the DC50 stood at 2.58 nM.
On to `O=C1CC[C@H](N2Cc3cc(O[C@H]4CCN(Cc5cc(F)c6nc(N7CCOCC7)ncc6c5)C4)ccc3C2=O)C(=O)N1` [(3S)-3-(5-{[(3S)-1-{[8-fluoro-2-(morpholin-4-yl)quinazolin-6-yl]methyl}pyrrolidin-3-yl]oxy}-1-oxo-2,3-dihydro-1H-isoindol-2-yl)piperidine-2,6-dione], for which, in the experiment on MKN45 cells, the pEC50 was 8.12 and the “MKN45 Cell Prolif. 120 hr (Ymin-Obs)” value stood at 10.25. In addition, at WEE1, the “293T-LentiX WEE1-ePL Degradation 4 hr (Ymin)” value stood at 32.63 and the DC50 stood at 3.13 nM.
